Experiments:
CRTH2 [1] = target: T1, CRTH2 (Homo sapiens, UniProt Q9Y5Y4); assay: Radioligand binding Scintillation Proximity Assay ([3H]PGD2, hCRTH2-CHO cell membranes); parameters: host or cells: CHO cells; details: 1.5 nM [3H]PGD2, hCRTH2-CHO cell membranes, SPA
T1 sequence (Q9Y5Y4 1-395): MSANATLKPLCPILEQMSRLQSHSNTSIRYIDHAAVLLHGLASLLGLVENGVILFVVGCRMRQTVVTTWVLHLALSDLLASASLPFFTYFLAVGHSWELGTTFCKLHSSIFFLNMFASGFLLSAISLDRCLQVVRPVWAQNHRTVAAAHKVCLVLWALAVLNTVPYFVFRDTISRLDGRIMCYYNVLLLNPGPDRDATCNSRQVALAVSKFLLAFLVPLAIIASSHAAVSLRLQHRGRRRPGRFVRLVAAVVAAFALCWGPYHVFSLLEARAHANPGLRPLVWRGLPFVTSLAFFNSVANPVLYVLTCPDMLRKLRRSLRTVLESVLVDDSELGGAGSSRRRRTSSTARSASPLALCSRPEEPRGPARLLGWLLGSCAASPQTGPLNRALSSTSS
In short: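 SPA competition binding at room temperature, 90 min with agitation: 1.5 nM [3H]PGD2, 10-50 μg/ml hCRTH2-CHO membrane protein, WGA SPA beads, HEPES pH 7.4 with 10 mM MnCl2, 1% DMSO. Non-specific binding defined with 10 μM PGD2; scintillation counting.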

CRTH2 [2] = target: T1, CRTH2; assay: [35S]GTPγS binding assay (CHO-CRTH2 cell membranes); type: biochemical; parameters: expressed in transfected cells; host or cells: CHO-CRTH2 cells; details: for IC50: antagonist mode, fixed concentration of PGD2 (EC80)
Method: Adherent CHO cells expressing hCRTH2 (Euroscreen, Belgium) were cultured in 225 cm^2 cell culture flasks (Corning, USA) in 30 ml of medium. After two rinses of phosphate buffered saline (PBS), cells were harvested in 10 ml of PBS containing 1 mM EDTA, centrifuged at 500×g for 5 min at 4° C. and frozen at −80° C. The pellet was re-suspended in 50 mM Tris-HCl, pH 7.4, 2 mM EDTA, 250 mM Sucrose, containing protease inhibitor cocktail tablets, (Complete EDTA-free, Roche, Germany) and incubated 30 min at 4° C. Cells were disrupted by nitrogen cavitation (Parr Instruments, USA) at 4° C. (800 p.s.i. for 30 min), and centrifuged at 500×g for 10 min at 4° C. Pellet containing nuclei and cellular debris was discarded and supernatant was centrifuged 60 min at 4° C. at 45000×g. Membrane pellet was re-suspended in storage buffer (10 mM HEPES/KOH pH 7.4, 1 mM EDTA, 250 mM sucrose, protease inhibitor cocktail tablets) using Dounce homogenization and frozen in liquid nitrogen, and stored at −80° C.
The [^35S]GTPγS assay measures the increase in guanine nucleotide exchange at G-proteins in cell membranes, resulting from agonist (PGD2) binding to CRTH2. This process can be monitored in vitro by incubating cell membranes containing G-proteins and CRTH2 with GDP and [^35S]GTPγS, a radiolabeled, hydrolysis-resistant analogue of GTP (see, Harrison et al., Life Sciences 74, 489-508, 2003). The addition of a Compounds of Formula (I) results in binding to CRTH2 and thus in an inhibition of agonist binding, which can be monitored as inhibition of the stimulation of GTP/GDP exchange.
Briefly, Compounds of Formula (I) are incubated in 96-well scintillating white polystyrene plates (Perkin Elmer, USA) in a final volume of 200 μl containing 20 mM HEPES/KOH pH 7.4, 3 mM MgCl2, 10 μg/ml Saponin, 5 μM GDP, 75 mM NaCl and 2% of dimethylsulphoxide (DMSO). Reaction is triggered by the addition of 5-10 μg of CHO-CRTH2 cell membranes and 0.15 nM [^35S]GTPγS. After 60 min incubation at 30° C., reaction is stopped by centrifugation at 700×g, at 4° C. for 10 minutes and supernatant is removed. The radioactivity coming from the [^35S]GTPγS bound on centrifuged cell membranes is recorded using a 1450 Micro-beta scintillation counter. For IC50 determination, increasing concentrations of compounds are incubated in presence of a fixed concentration of PGD2 (EC80). For EC50 measurements, compounds are incubated without addition of PGD2. Basal [^35S]GTPγS activity is determined without addition of any ligands or compounds. 100% [^35S]GTPγS activity is measured by the addition of 1 μM of PGD2.

CRTH2 [3] = target: T1, CRTH2; assay: Cellular Dielectric Spectroscopy (CHO-CRTH2 cells); type: cell-based; parameters: expressed in transfected cells; host or cells: CHO-CRTH2 cells; details: for IC50: antagonist mode, fixed concentration of PGD2 (EC80); for EC50 / Emax: partial agonists, agonist activity without PGD2
Method: Cellular Dielectric Spectroscopy (CDS) is a label-free technology based on the measurement of complex impedance changes (delta Z or dZ). Impedance (Z) is related to the ratio of voltage to current as described by Ohm's law (Z=V/I). In order to measure the changes in impedance that occur in response to receptor stimulation, mammalian cells are seeded onto a custom 96-well microliter plate that contains electrodes at the bottom of each well. Key contributors to the impedance measurements are changes in cell-substrate adherence, changes in cell shape and volume, and changes in cell-cell interactions. These factors individually or collectively affect the flow of current, influencing the magnitude and characteristics of the signal measured. G-protein coupled receptors ligand-induced activity can be measured using this technology and specific G protein coupling can be identified. Activities of reference agonist and antagonist molecules of CRTH2 have been measured using this assay and similar results were obtained compared to different functional assays.
CHO-CRTH2 cells are cultured in HAM's F12 (Lonza, Switzerland) supplemented with 10% foetal calf serum (PAA, Australia) and 400 μg/ml Geneticin. 100000 cells/well are seeded in standard 96W Microplates (MDS Analytical Technologies) and incubated at 37° C. in 5% CO2 for 24 hours. Cells are washed twice with 135 μl of cell key buffer (Hank's Balanced Salt Solution 1× (HBSS) (Invitrogen) supplemented with 10 mM HEPES pH 7.4 in presence of 1% DMSO). For EC50 determination. 15 μl of increasing concentration of Compounds of Formula (I) diluted in cell key buffer are added to the cells and agonist activity is then recorded for 25 minutes. […] Results are expressed as the amplitude between the highest and the lowest signal produced (max-min). Basal and maximum activities are measured, respectively in absence or presence of PGD2 (EC80).

[4] = inverse agonists, 100% of Emax = activity with 1 μM PGD2

| Compound | IC50 (CRTH2 [1]) [µM] | IC50 (CRTH2 [2]) [µM] | IC50 (CRTH2 [3]) [µM] | also measured |
| --- | --- | --- | --- | --- |
| O=C(O)COc1ccc(Cl)cc1C#Cc1cccc(Cl)c1 [Example 3, {4-chloro-2-[(3-chlorophenyl)ethynyl]phenoxy}acetic acid] | 0.026 | 0.105 |  |  |
| O=C(O)COc1ccc(Cl)cc1C#Cc1ccccc1Cl [Example 4, {4-chloro-2-[(2-chlorophenyl)ethynyl]phenoxy}acetic acid] | 0.015 | 0.037 |  |  |
| CCCc1ccncc1C#Cc1cc(Cl)ccc1OCC(=O)O [Example 42, {4-chloro-2-[(4-propylpyridin-3-yl)ethynyl]phenoxy}acetic acid] | 0.005 | 0.01 | 0.025 |  |
| Cc1ccncc1C#Cc1cc(C#N)ccc1OCC(=O)O [Example 44, {4-cyano-2-[(4-methylpyridin-3-yl)ethynyl]phenoxy}acetic acid] | 0.06 |  |  | EC50 (CRTH2 [3]): 0.115 µM; Emax (CRTH2 [3]): 59%; Emax (CRTH2 [2]; partial agonist, without PGD2, 100% = activity with 1 μM PGD2): 13%; EC50 (CRTH2 [2]; partial agonist, without addition of PGD2): 0.04 µM |
| CCCc1ccc(S(C)(=O)=O)cc1C#Cc1cc(C#N)ccc1OCC(=O)O [Example 56, (4-cyano-2-{[5-(methylsulfonyl)-2-propylphenyl]ethynyl}phenoxy)acetic acid] | 0.03 | 0.049 | 0.053 |  |
| CN(C)S(=O)(=O)c1cncc(C#Cc2cc(C#N)ccc2OCC(=O)O)c1 [Example 67, [4-cyano-2-({5-[(dimethylamino)sulfonyl]pyridin-3-yl}ethynyl)phenoxy]acetic acid] | 0.086 |  | 0.034 |  |
| CCCS(=O)(=O)c1cccc(C#Cc2cc(-c3ccccc3)ccc2OCC(=O)O)c1 [Example 131, [(3-{[3-(Propylsulfonyl)phenyl]ethynyl}biphenyl-4-yl)oxy]acetic acid] | 0.024 |  |  | EC50 (CRTH2 [3]): 0.074 µM; Emax (CRTH2 [3]): 68% |
| CS(=O)(=O)c1cc(C#Cc2cc(Cl)ccc2OCC(=O)O)ccc1-c1ccccc1 [Example 140, (4-chloro-2-{[2-(methylsulfonyl)biphenyl-4-yl]ethynyl}phenoxy)acetic acid] | 0.006 | 0.037 |  | Emax (CRTH2 [2]; [4]): -11% |
| CC(=O)Nc1ccc(C#Cc2cc(Cl)ccc2OCC(=O)O)cc1 [Example 152, (2-{[4-(acetylamino)phenyl]ethynyl}-4-chlorophenoxy)acetic acid] | 0.028 |  |  | Emax (CRTH2 [2]; [4]): -13% |

Now from value to compound, other results behind:

| IC50 (CRTH2 [1]) [µM] | IC50 (CRTH2 [2]) [µM] | IC50 (CRTH2 [3]) [µM] | Compound | also measured |
| --- | --- | --- | --- | --- |
| 0.012 | 0.288 |  | O=C(O)COc1ccc(Cl)cc1C#Cc1cccc(S(=O)(=O)CCO)c1 [Example 20, [4-chloro-2-({3-[(2-hydroxyethyl)sulfonyl]phenyl}ethynyl)phenoxy]acetic acid] |  |
| 0.025 | 0.185 |  | CCCS(=O)(=O)c1cccc(C#Cc2cc(C#N)ccc2OCC(=O)O)c1 [Example 32, (4-cyano-2-{[3-(propylsulfonyl)phenyl]ethynyl}phenoxy)acetic acid] |  |
| 0.009 | 0.039 |  | CCCS(=O)(=O)c1ccc(C)c(C#Cc2cc(C#N)ccc2OCC(=O)O)c1 [Example 40, (4-cyano-2-{[2-methyl-5-(propylsulfonyl)phenyl]ethynyl}phenoxy)acetic acid] |  |
| 0.006 | 0.006 | 0.014 | CS(=O)(=O)c1ccc(Cl)c(C#Cc2cc(Cl)ccc2OCC(=O)O)c1 [Example 59, (4-chloro-2-{[2-chloro-5-(methylsulfonyl)phenyl]ethynyl}phenoxy)acetic acid] |  |
| 0.007 |  | 0.021 | CC(C)c1ccc(S(C)(=O)=O)cc1C#Cc1cc(Cl)ccc1OCC(=O)O [Example 70, (4-chloro-2-{[2-isopropyl-5-(methylsulfonyl)phenyl]ethynyl}phenoxy)acetic acid] |  |
| 0.016 |  | 0.015 | CC(C)c1ccc(S(C)(=O)=O)cc1C#Cc1cc(C#N)ccc1OCC(=O)O [Example 71, (4-cyano-2-{[2-isopropyl-5-(methylsulfonyl)phenyl]ethynyl}phenoxy)acetic acid] |  |
| 0.005 |  | 0.118 | Cc1ccc(S(=O)(=O)NC(C)C)cc1C#Cc1cc(Cl)ccc1OCC(=O)O [Example 86, [4-chloro-2-({5-[(isopropylamino)sulfonyl]-2-methylphenyl}ethynyl)phenoxy]acetic acid] |  |
| 0.006 |  | 0.083 | Cc1ccc(S(=O)(=O)N(C)C(C)C)cc1C#Cc1cc(Cl)ccc1OCC(=O)O [Example 87, {4-chloro-2-[(5-{[isopropyl(methyl)amino]sulfonyl}-2-methylphenyl)ethynyl]phenoxy}acetic acid] |  |
| 0.009 | 0.01 | 0.084 | Cc1ccc(S(=O)(=O)c2ccccc2)cc1C#Cc1cc(Cl)ccc1OCC(=O)O [Example 95, (4-chloro-2-{[2-methyl-5-(phenylsulfonyl)phenyl]ethynyl}phenoxy)acetic acid] | Emax (CRTH2 [2]; [4]): -17% |
| 0.003 | 0.009 |  | CCCS(=O)(=O)c1ccc(F)c(C#Cc2cc(Cl)ccc2OC(C)C(=O)O)c1 (stereo not drawn) [Example 168, 2-(4-chloro-2-{[2-fluoro-5-(propylsulfonyl)phenyl]ethynyl}phenoxy)propanoic acid] | Emax (CRTH2 [2]; [4]): -13% |
| 0.001 | 0.007 |  | CCCS(=O)(=O)c1ccc(C)c(C#Cc2cc(Cl)ccc2OC(C)C(=O)O)c1 (stereo not drawn) [Example 173, 2-(4-chloro-2-{[2-methyl-5-(propylsulfonyl)phenyl]ethynyl}phenoxy)propanoic acid] |  |

Source: patent US8273769B2, “Phenoxy acetic acid derivatives” (Merck Serono SA, priority 2009, dated 2012)
